Measured values: US9821018B2, “Composition comprising Raphanus, Theobroma and Passiflora for treating opioid and alcohol abuse” (priority 2012, dated 2017)
Structures can show the parent of a compound that is named as a salt.

Tests used:
PTZ-induced convulsions = details: mice, i.p.; safranal 0.15 and 0.35 ml/kg body weight, crocin 22 mg/kg; cited from earlier work
[1] = test system: morphine-induced place preference; details: i.p.; extract 10, 50 and 100 mg/kg, safranal 1, 5 and 10 mg/kg; cited from earlier work
brain serotonin = brain serotonin concentration by ELISA; assay type: in vivo, Male Wistar rats; details: i.p., 30 min after injection; fluoxetine 10 mg/kg, desipramine 50 mg/kg, Raphanus extract 2-256 mg/kg; vs saline
Experimental: (§1) Male Wistar rats (250-300 g, Amman-Jordan) were used throughout the study (8 rats for each experiment). Animals were housed in groups of 4/cage in a 12/12 h light-cycle (lights on at 07.00 a.m.), with ad-lib food and water available. The animals were randomly allocated to different groups of the experiment. All experiments were conducted in accordance with standard ethical guidelines and approved by the local ethical Committee University of Medical Committee on the Use and Care of Animals, 81/021, Jul. 10, 2011 (Petra University, Amman, Jordan)).
(§2) Fluoxetine hydrochloride [N-methyl-3-[(4-trifluoromethyl) phenoxy]-3-phenylpropylamine hydrochloride] and desipramine hydrochloride [10-11-dihydro-N-methyl-5H-dibenz (Z) [b, f] azepine-5-propanamine hydrochloride] (TOCRIS Bioscience, UK) were dissolved in sterile saline and administered intraperitoneally at a concentration of 1 ml/kg; the extract was prepared immediately before use. The control groups were administered saline.
(§3) The Raphanus sativus extract used was prepared in Jordan. To prepare the extract, 100 g of dried and milled […] was extracted with 1000 ml distilled water by maceration. […] The extract was dissolved in normal saline and immediately administered to the animals. […]

brain dopamine = brain dopamine concentration by ELISA; assay type: in vivo, Male Wistar rats; details: i.p., 30 min after injection; fluoxetine 10 mg/kg, desipramine 50 mg/kg, Raphanus extract up to 256 mg/kg (most potent)
Experimental: as §1, §2, §3

| Structure (SMILES) | anticonvulsant activity (PTZ-induced convulsions) | acquisition and expression of morphine CPP [1] | brain serotonin levels (brain serotonin) | dopamine concentration in the brain (brain dopamine) |
| --- | --- | --- | --- | --- |
| CC(/C=C/C=C(\C)C(=O)O[C@@H]1O[C@H](CO[C@@H]2O[C@H](CO)[C@@H](O)[C@H](O)[C@H]2O)[C@@H](O)[C@H](O)[C@H]1O)=C\C=C\C=C(C)\C=C\C=C(/C)C(=O)O[C@@H]1O[C@H](CO[C@@H]2O[C@H](CO)[C@@H](O)[C@H](O)[C@H]2O)[C@@H](O)[C@H](O)[C@H]1O [Crocin, crocin] | did not show anticonvulsant activity |  |  |  |
| CC1=C(C=O)C(C)(C)CC=C1 [Safranal, safranal] | reduced the seizure duration, delayed the onset of tonic convulsions, and protected mice from death | The same results were obtained |  |  |
| CNCCCN1c2ccccc2CCc2ccccc21 [desipramine, 10-11-dihydro-N-methyl-5H-dibenz (Z) [b, f] azepine-5-propanamine hydrochloride] |  |  | neither desipramine nor Raphanus extract can increase brain serotonin levels | can increase dopamine concentration in the brain |
| CNCCC(Oc1ccc(C(F)(F)F)cc1)c1ccccc1 (stereo not shown) [fluoxetine, N-methyl-3-[(4-trifluoromethyl)phenoxy]-3-phenylpropylamine hydrochloride] |  |  | can increase brain serotonin levels significantly | can increase dopamine concentration in the brain |
